Laboratory results published in publication PMC6713216, “Dual-target anti-Alzheimer’s disease agents with both iron ion chelating and monoamine oxidase-B inhibitory activity” (Journal of Enzyme Inhibition and Medicinal Chemistry, 2019).
Read-outs that look alike come from different tables or passages of the source.

How the values were obtained:
[1] = pKa determination by automatic spectrophotometric titration; type: physicochemical; settings: DMSO/0.1 M KCl 2:3 (V/V) solution, DMSO:KCl (0.1 M) = 2:3 (V/V), 25 °C
Procedure: (§1) The automatic titration system used in the test consisted of an automatic titrator, a luminescence 759 s UV-Vis spectrophotometer, and a pH Meter (Mettler Toledo InLab Expert PRO/Mettler Toledo InLab Science). All instruments are controlled by a computer program.
(§2) The testing solution (2:3 DMSO/KCl (0.1 M), V/V) was maintained at 25 °C using a TP-3A temperature controller. The cuvette is mounted on a spectrophotometer. The E0 and s of the pH Meter were calibrated by three standard solutions (pH = 6.86, 9.18, 4.00). KCl solution (0.1 M) was used to maintain the ionic strength. For the Fe(III) affinity evaluation, the ratio of compounds to iron ion was kept at 1.1:1 (n/n) when Logβ1 was measured; the ratio of compounds to iron ion was kept at 5:1 (n/n) when Logβ2 and Logβ3 were tested.
The titration was performed in a 50 mm path length cuvette. 45 ml KCl (0.1 M) solution, 40 μL of saturated EDTA solution were added to the cuvette. The pH value of the solution was acidified to 2.0 with hydrochloric acid (1.5 M). Then 20 μL of test compound DMSO solution (30 μM/L) was added and stirred vigorously. By adding KOH solution (0.1 M) from the automatic buret, the pH value of the solution was increased by 0.1. […] Adding KOH solution (0.1 M) and repeated the automatic process until the specified endpoint of pH value was reached. All data were recorded internally by the Visual Basic program, and the test results are analysed by the HypSpec2014 program.

[2] = Determination of iron(III) affinity (Logβ1, Logβ2, Logβ3) by spectrophotometric titration; type: physicochemical; settings: DMSO:KCl (0.1 M) = 2:3 (V/V), 25 °C; for Logβ1: compound:iron 1.1:1; for Logβ2 / Logβ3: compound:iron 5:1
Procedure: as §1, §2
A 45 ml KCl (0.1 M) solution was added to the cuvette (50 mm) and the pH value was acidified to 2.1. Then 30 μM DMSO solution of the testing compound and 60 μL acidic solution of FeCl3 (15 mM) were added separately, and the mixture was vigorously stirred. After the absorbance value is stabilised, a certain amount of HCl solution (4 M) was added by the automatic buret to reduce the pH of the solution by 0.1. After the system was equilibrated, the spectral scan was performed once after 20 min. This protocol was repeated until the specified endpoint of the pH value was reached. All data was recorded with the internal Visual Basic program, HypSpec2014 program was utilised for the data analysis.
Similarly, 45 ml KCl (0.1 M) solution was added to the cuvette (50 mm) and the pH value was acidified to 2.1. Then 30 μM DMSO solution of the testing compound and 60 μL acidic solution of FeCl3 (15 mM) were added separately, and the mixture was vigorously stirred. After the absorbance value is stabilised, a certain amount of KOH solution (0.1 M) was added by the automatic buret to increase the pH of the solution by 0.1. After the system was equilibrated, the spectral scan was performed once after 5 min. This protocol was repeated until the specified endpoint of the pH value was reached. All data were recorded with the internal Visual Basic program, HypSpec2014 program was utilised for the data analysis[5]^,[21]^,[22].

[3] = Calculation of pFe3+ by HySS software from pKa and logβ values; type: physicochemical; settings: DMSO:KCl (0.1 M) = 2:3 (V/V); calculated by HySS from pKa1, pKa2, logβ1-3
Procedure: The values of pFe^3+ were calculated by HySS software according to the results of pKa1, pKa2, logβ1, logβ2, and logβ3 determined by the above methods. The basic parameters were set as follows: FeOH = –2.563, Fe(OH)2 = –6.205, Fe(OH)3 = –15.1, Fe2(OH)2 = –2.843, Fe3(OH)4 = –6.059, Fe(OH)4 = –21.883[23].

Human MAO-B = biological target: T1, Human MAO-B (Homo sapiens, UniProt P27338); assay: Determination of human MAO-B inhibitory activity (Monoamine Oxidase Assay Kit, fluorescence); type: biochemical; settings: for inhibition at 1 µM: read-out: Inhibitory rate (%) 1 μM; for inhibition at 10 µM: compound at 10 μM, read-out: Inhibitory rate (%) 10 μM
T1 construct: purchased Sigma-Aldrich
T1 sequence (P27338 1-520): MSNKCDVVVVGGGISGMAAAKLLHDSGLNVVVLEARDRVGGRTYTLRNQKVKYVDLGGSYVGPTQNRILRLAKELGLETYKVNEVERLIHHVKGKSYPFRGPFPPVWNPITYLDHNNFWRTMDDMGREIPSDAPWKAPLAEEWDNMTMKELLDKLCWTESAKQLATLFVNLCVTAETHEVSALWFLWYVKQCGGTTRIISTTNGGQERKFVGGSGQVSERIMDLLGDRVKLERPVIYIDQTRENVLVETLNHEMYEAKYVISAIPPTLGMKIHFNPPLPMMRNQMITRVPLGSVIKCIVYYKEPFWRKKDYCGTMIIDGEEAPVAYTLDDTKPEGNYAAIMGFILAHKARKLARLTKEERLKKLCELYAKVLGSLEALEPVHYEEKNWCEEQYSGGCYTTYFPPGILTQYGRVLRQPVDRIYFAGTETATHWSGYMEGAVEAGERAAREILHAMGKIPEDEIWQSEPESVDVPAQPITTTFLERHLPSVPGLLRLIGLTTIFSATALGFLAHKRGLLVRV
Procedure: Human MAO-B (5 mg/mL) was purchased from Sigma-Aldrich and was pre-aliquoted and stored at -70 °C. 200 μL enzymatic reactions were diluted in 2 ml microcentrifuge tubes by potassium phosphate buffer (Assay Buffer, pH 7.4) which have been provided by Sigma-Aldrich Monoamine Oxidase Assay Kit. The final volumes of the reactions were 100 μL and contained 45 μL MAO-B (0.0075 mg/mL), included 5 μL different concentrations of the testing inhibitors (10 μM, 1 μM), and 50 μL Master Reaction, p-Tyramine, HRP Enzyme and Dye Reagent. Stock solutions of the compounds were prepared in DMSO.

[4] = pKa determination by automatic spectrophotometric titration; type: physicochemical; settings: 0.1 M KCl solution, Figure 2; 0.1 M KCl at 25 °C; read-out: pKa1 (Figure 2, printed as pH at curve crossing)

Structure (SMILES)	pKa ([1]; read-out: pKa1)	pKa ([1]; read-out: pKa2)	Logβ1 [2]	Logβ2 [2]	Logβ3 [2]	pFe3+ [3]	inhibition at 1 µM (Human MAO-B; compound at 1 μM) [%]	inhibition at 10 µM (Human MAO-B) [%]	melting point [°C]	IC50 (Human MAO-B) [nM]	Inhibitory rate (%) 1 μM (Human MAO-B; compound at 1 μM, 1 µM) [%]	pKa [4]
Cc1cc(=O)c(O)c(CO)n1CCn1cc(COc2ccc3ccc(=O)oc3c2)nn1 [Compound 27a, 3-hydroxy-2-(hydroxymethyl)-6-methyl-1–(2-(4-(((2-oxo-2H-chromen-7-yl)oxy)methyl)-1H-1,2,3-triazol-1-yl)ethyl)pyridin-4(1H)-one]	2.7	9.2	13.8	24.0	33.7	18.9	> 20	96.2	212 to 215	–	–	–
Cc1cc(=O)c(O)c(CO)n1CCCn1cc(COc2ccc3ccc(=O)oc3c2)nn1 [Compound 27b, 3-hydroxy-2-(hydroxymethyl)-6-methyl-1–(3-(4-(((2-oxo-2H-chromen-7-yl)oxy)methyl)-1H-1,2,3-triazol-1-yl)propyl)pyridin-4(1H)-one]	2.8	8.8	12.9	25.5	33.5	19.8	–	–	–	680	–	–
Cc1cc(=O)c(O)c(C)n1CCn1cc(COc2ccc3ccc(=O)oc3c2)nn1 [Compound 27c, 3-hydroxy-2,6-dimethyl-1–(2-(4-(((2-oxo-2H-chromen-7-yl)oxy)methyl)-1H-1,2,3-triazol-1-yl)ethyl)pyridin-4(1H)-one]	3.3	9.7	14.9	26.0	34.1	18.0	1.84	91	–	–	–	–
Cc1cc(=O)c(O)c(C)n1CCCn1cc(COc2ccc3ccc(=O)oc3c2)nn1 [Compound 27d, 3-hydroxy-2,6-dimethyl-1–(3-(4-(((2-oxo-2H-chromen-7-yl)oxy)methyl)-1H-1,2,3-triazol-1-yl)propyl)pyridin-4(1H)-one]	3.4	10	14.9	26.3	34.8	17.6	9.67	98.3	263 to 265	–	–	–
CCc1c(O)c(=O)ccn1CCCn1cc(COc2ccc3ccc(=O)oc3c2)nn1 [Compound 27e, 2-ethyl-3-hydroxy-1–(3-(4-(((2-oxo-2H-chromen-7-yl)oxy)methyl)-1H-1,2,3-triazol-1-yl)propyl)pyridin-4(1H)-one]	3.2	9.8	14.7	26.0	33.2	17.1	1.23	95.7	–	–	–	–
CCc1c(O)c(=O)ccn1CCn1cc(COc2cc(=O)oc3ccccc23)nn1 [Compound 27f, 2-ethyl-3-hydroxy-1–(2-(4-(((2-oxo-2H-chromen-4-yl)oxy)methyl)-1H-1,2,3-triazol-1-yl)ethyl)pyridin-4(1H)-one]	3.4	9.8	14.9	25.7	32.8	16.7	> 30	93.3	253 to 256	–	–	–
CCc1c(O)c(=O)ccn1CCCn1cc(COc2cc(=O)oc3ccccc23)nn1 [Compound 27g, 2-ethyl-3-hydroxy-1–(3-(4-(((2-oxo-2H-chromen-4-yl)oxy)methyl)-1H-1,2,3-triazol-1-yl)propyl)pyridin-4(1H)-one]	3.2	9.7	14.6	25.6	33.1	17.1	> 20	89.5	195 to 198	–	–	–
Cc1cc(=O)c(O)c(CO)n1CCn1cc(COc2cc(=O)oc3ccccc23)nn1 [Compound 27h, 3-hydroxy-2-(hydroxymethyl)-6-methyl-1–(2-(4-(((2-oxo-2H-chromen-4-yl)oxy)methyl)-1H-1,2,3-triazol-1-yl)ethyl)pyridin-4(1H)-one]	3	9.1	13.3	24.8	33.2	18.7	13.2	85.7	142 to 148	–	–	–
CCc1c(O)c(=O)ccn1CCn1cc(COc2cc3ccccc3oc2=O)nn1 [Compound 27i, 2-ethyl-3-hydroxy-1–(2-(4-(((2-oxo-2H-chromen-3-yl)oxy)methyl)-1H-1,2,3-triazol-1-yl)ethyl)pyridin-4(1H)-one]	2.9	9.6	14.2	25.4	32.8	17.0	> 30	94	258 to 261	–	–	–
CCc1c(O)c(=O)ccn1CCCn1cc(COc2cc3ccccc3oc2=O)nn1 [Compound 27j, 2-ethyl-3-hydroxy-1–(3-(4-(((2-oxo-2H-chromen-3-yl)oxy)methyl)-1H-1,2,3-triazol-1-yl)propyl)pyridin-4(1H)-one]	3.3	9.8	14.6	25.7	33.5	17.1	62	88.8	192 to 195	860	62.43	3.4
Cc1cc(=O)c(O)c(CO)n1CCCn1cc(COc2cc3ccccc3oc2=O)nn1 [Compound 27k, 3-hydroxy-2-(hydroxymethyl)-6-methyl-1–(3-(4-(((2-oxo-2H-chromen-3-yl)oxy)methyl)-1H-1,2,3-triazol-1-yl)propyl)pyridin-4(1H)-one]	3.3	9.1	13.6	24.5	33.0	18.4	> 30	90.5	–	–	–	–
